Reference: patent US11214803B2, “Modulators of YAP1 expression” (Ionis Pharmaceuticals, Inc., priority 2019, dated 2022)
pIC50: −log10 of the molar value. Strand notation (5' to 3'): a small letter for the sugar, then the base; units joined by * are phosphorothioate-linked, units joined directly phosphodiester-linked; [ ] holds rarer units or linkages, { } end groups; capitals alone tell only the bases. e = 2'-O-(2-methoxyethyl) (MOE); k = constrained ethyl (cEt); [5mC] = 5-methylcytosine; d = 2'-deoxy (DNA); m = 2'-O-methyl

Tested on: Yap1 mRNA
Experiment: Dose-dependent inhibition of human Yap1 in SNU-449 cells (Example 9, RTS36584)
Assay type: cell-based
Settings: free uptake; for % UTC (Yap1 mRNA): approximately 48 hours; for pIC50: linear regression on a log/linear plot
Summary of the method: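 SNU-449 cells (10,000/well) took up modified oligonucleotides by free uptake at a range of doses for about 48 h. Yap1 mRNA was quantified with primer-probe set RTS36584, normalised to RIBOGREEN total RNA and expressed as % untreated control; IC50 from linear regression on log/linear plot.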

Substance	% UTC (Yap1 mRNA) (31.3 nM) [% UTC]	% UTC (Yap1 mRNA) (125.0 nM) [% UTC]	% UTC (Yap1 mRNA) (500.0 nM) [% UTC]	% UTC (Yap1 mRNA) (2000.00 nM) [% UTC]	pIC50
1198406 (kG*d[5mC]*dT*dT*dT*dG*dG*dA*dA*dG*dA*kT*e[5mC]*kT*eG*kA; antisense) [compound 1198406]	70	57	31	16	6.70
1197215 (kA*kA*kG*dT*dG*dT*dA*dT*dG*dT*d[5mC]*dA*dG*kA*kA*kG) [compound 1197215]	56	31	7	2	7.40
1198460 (kG*kA*dA*dA*dT*dT*dG*dT*d[5mC]*dT*d[5mC]*eA*kT*eG*k[5mC]*e[5mC]; antisense) [compound 1198460]	60	49	28	11	7.00
1198294 (kA*kG*kA*dG*dT*dA*dT*dG*dT*dG*dG*d[5mC]*kA*eA*kT*eA; antisense) [compound 1198294]	59	33	14	5	7.30
1198213 (kA*kT*dA*dT*dT*dA*dG*dA*dG*dT*dA*eT*eG*eT*kG*kG) [compound 1198213]	91	33	11	3	7.00
1198295 (kT*kA*kG*dA*dG*dT*dA*dT*dG*dT*dG*dG*k[5mC]*eA*kA*eT; antisense) [compound 1198295]	82	47	19	8	7.00
1198371 (kA*dT*dT*dG*dT*d[5mC]*dT*d[5mC]*dA*dT*dG*k[5mC]*e[5mC]*kT*eT*kA; antisense) [compound 1198371]	85	66	46	21	6.52
1198857 (kT*k[5mC]*dT*dT*dA*dT*dA*dT*dG*dG*dT*kT*eT*kT*eG*kT) [compound 1198857]	78	44	13	4	7.00
1198904 (kT*kA*dT*dT*dA*dG*dA*dG*dT*dA*dT*kG*dT*kG*dG*k[5mC]; antisense) [compound 1198904]	78	36	23	10	7.00
1198611 (kA*kG*kT*dG*dT*dA*dT*dG*dT*d[5mC]*dA*dG*kA*kA*kG*eA; antisense) [compound 1198611]	37	19	4	1	> 7.52
1198528 (kT*kA*dA*dA*dG*dT*dG*dT*dA*dT*dG*eT*k[5mC]*eA*kG*eA; antisense) [compound 1198528]	87	54	30	11	6.70
1198815 (kT*kA*dG*dA*dG*dT*dA*dT*dG*dT*dG*kG*e[5mC]*kA*eA*kT; antisense) [compound 1198815]	84	64	34	15	6.70
1198529 (kT*kT*dA*dA*dA*dG*dT*dG*dT*dA*dT*eG*kT*e[5mC]*kA*eG; antisense) [compound 1198529]	86	69	37	16	6.52
1198610 (kT*kG*kT*dA*dT*dG*dT*d[5mC]*dA*dG*dA*dA*kG*kA*kG*eT; antisense) [compound 1198610]	69	29	7	2	7.00
1198484 (kG*k[5mC]*dA*d[5mC]*dT*dT*dT*dT*dA*d[5mC]*dA*eT*kT*eA*kG*eG) [compound 1198484]	80	45	24	12	7.00
1198546 (kG*kA*kA*dA*dT*dT*dG*dT*d[5mC]*dT*d[5mC]*dA*kT*kG*k[5mC]*e[5mC]) [compound 1198546]	70	42	18	6	7.00

Substance	% UTC (Yap1 mRNA) (31.3 nM) [% UTC]	% UTC (Yap1 mRNA) (125.0 nM) [% UTC]	% UTC (Yap1 mRNA) (500.0 nM) [% UTC]	% UTC (Yap1 mRNA) (2000.00 nM) [% UTC]	pIC50
1198527 (kA*kA*dA*dG*dT*dG*dT*dA*dT*dG*dT*e[5mC]*kA*eG*kA*eA; antisense) [compound 1198527]	63	35	12	3	7.00
1198696 (kT*kG*dT*dA*dT*dG*dT*d[5mC]*dA*dG*dA*dA*kG*eA*kG*eT) [compound 1198696]	58	31	11	2	7.40
1198961 (kA*kA*dA*dG*dT*dG*dT*dA*dT*dG*dT*k[5mC]*dA*kG*dA*kA; antisense) [compound 1198961]	77	35	11	3	7.00
1198492 (kG*k[5mC]*dT*dT*dT*dG*dG*dA*dA*dG*dA*eT*k[5mC]*eT*kG*eA; antisense) [compound 1198492]	67	39	19	10	7.00
1200785 (kA*kT*kT*dG*dT*mC*dT*d[5mC]*dA*dT*dG*d[5mC]*d[5mC]*kT*kT*kA; antisense) [compound 1200785]	98	73	42	24	6.40
1198569 (CACTTTTACATTAGGA; modified gapmer, chemistry not fully specified) [compound 1198569]	71	45	22	14	7.00
1095593 (kT*kG*dA*dG*dG*dT*dA*dT*dA*dA*d[5mC]*eT*eG*eG*kG*k[5mC]; antisense) [compound 1095593]	73	44	27	10	7.00
1198799 (k[5mC]*eT*kA*dA*dG*dT*dA*dA*dG*dG*dT*dT*eT*e[5mC]*k[5mC]*k[5mC]; antisense) [compound 1198799]	62	35	13	4	7.00
1198412 (kT*dT*dA*dG*dG*dA*dT*dG*d[5mC]*dA*dT*kG*eG*kT*eT*kT; antisense) [compound 1198412]	73	54	33	15	6.70
1197309 (kG*kT*kA*dA*mU*dA*dT*dT*dG*d[5mC]*dA*dA*dT*k[5mC]*kT*kG; antisense) [compound 1197309]	91	63	30	9	6.70
1009325 (kA*kG*kA*dG*dT*dA*dT*dG*dT*dG*dG*d[5mC]*dA*kA*kT*kA; antisense) [compound 1009325]	59	36	16	4	7.00
1198746 (kG*e[5mC]*kA*d[5mC]*dT*dT*dT*dT*dA*d[5mC]*dA*dT*eT*eA*kG*kG) [compound 1198746]	49	24	9	3	> 7.52
1198616 (kT*kT*kT*dA*dA*dA*dG*dT*dG*dT*dA*dT*kG*kT*k[5mC]*eA; antisense) [compound 1198616]	78	46	18	5	7.00
1198457 (kA*kT*dT*dG*dT*d[5mC]*dT*d[5mC]*dA*dT*dG*e[5mC]*k[5mC]*eT*kT*eA; antisense) [compound 1198457]	82	56	31	12	6.70
1198553 (kT*kA*kG*dA*dG*dT*dA*dT*dG*dT*dG*dG*k[5mC]*kA*kA*eT; antisense) [compound 1198553]	65	38	19	6	7.00
1198409 (kA*dG*dT*dG*d[5mC]*dT*dT*dT*dG*dG*dA*kA*eG*kA*eT*k[5mC]; antisense) [compound 1198409]	100	68	45	27	6.40
